Test results taken from patent publication US8796275B2, “Anti-malarial compounds” (The Trustees of the University of Pennsylvania, priority 2008, dated 2014).
Where two headings read alike, the source gives them in different places.

Columns and labels:
[1] = test system: 3D7 strain of P. falciparum; experiment: High throughput quantitative parasite growth assay, luciferase expressing parasites; assay type: cell-based, Plasmodium falciparum; conditions: luciferase readout, approximately 60 hours growth
Procedure: Numerous compounds were initially screened using a high throughput quantitative parasite growth assay that makes use of a strain of parasites expressing a cytoplasmic firefly luciferase (obtained from Dr. Kirk Deitsch, Cornell Medical College). These parasites were transfected with a vector containing the firefly luciferase gene using the malarial HRPII promoter. To grow parasites, culture dishes ranging from 96 well plates to 30 ml dishes were used. […] Parasites were cultured in human RBCs under an atmosphere of 5% O2/7% CO2/88% N2 in RPMI 1640 medium supplemented with 25 mM Hepes, 30 mg/L hypoxanthine, 0.225% (w/v) NaHCO3 and 0.5% (w/v) Albumax II (Life Technologies, Grand Island, N.Y.).
A standard luminescent readout was used to measure the growth of parasites. Parasites were grown under normal conditions, lysed in the presence of the luminescence reagents (Bright Glo, Promega) and then measured. To initially test for growth, luciferase expressing parasites were synchronized using serial sorbitol treatments and then parasitemia, the percentage of RBCS infected with parasites, was adjusted using uninfected RBCs. 100 μl of total media was used in a 96 well format. Parasitized RBCs were incubated in 96 well plates at 37° C. and gassed with 5% CO2, 5% O2, 90% N2. Parasites were allowed to grow for approximately 60 hours, until they successfully divided, ruptured and reinvaded new RBCs. At 10-15 hours post invasion, the cells were lysed, and luciferase levels were measured using an Analyst HT luminometer (Molecular Devices).

P. falciparum 3D7 = experiment: Cultures of P. falciparum 3D7, flow cytometry quantitation of parasitemia; assay type: cell-based; conditions: Plasmodium falciparum
Description: (§1) Flow cytometry was used for quantitation of parasitemia using SYOX Green on an LSRII.

P. falciparum DD2 = experiment: microbe, parasite or virus in culture; assay type: cell-based, Plasmodium falciparum; conditions: for IC50: Plasmodium falciparum, DD2, read-out: IC50 (DD2)
Description: as §1

food vacuole = experiment: Food vacuole integrity, parasites expressing plasmepsin II-YFP, fluorescence microscopy; assay type: cell-based, Plasmodium falciparum; conditions: plasmepsin II-YFP marker
[2] = test system: uninfected red blood cells
P. falciparum = experiment: Anti-parasitic activity in vitro, human red blood cell assay; assay type: cell-based, Plasmodium falciparum
Procedure: Anti-parasitic activities were measured in vitro using a human red blood cell assay. A single P. falciparum organism typically infects an erythrocyte and produces 24 progeny within 48 hours following infection. The progeny are released and rapidly infect neighboring red blood cells. […] Observations were also made during the 48 hour incubation period to assess the susceptibility of the parasite during lifecycle stages inside and outside the host erythrocyte. […] One goal of targeting parasite membranes, rather than proteins or metabolic pathways, represents a highly innovative and novel strategy for treating parasitic diseases and distinguishes this approach from most others in this field.

[3] = Plasmodium falciparum, 3D7, 60 h

Work on C[C@H]1[C@H](OC(=O)CCC(=O)O)O[C@@H]2O[C@@]3(C)CC[C@H]4[C@H](C)CC[C@@H]1[C@@]24OO3 [Artesunate, artesunate, reference compound] yielded an IC50 [1, 3] of 9 nM.
NCCc1cccc(-c2ccc3sc4ccc(-c5cccc(CCN)c5)cc4c3c2)c1 [Compound 106] was tested, and the IC50 (P. falciparum 3D7; 3D7 strain, read-out: IC50 (3D7)) was 150 nM, the “effectiveness in strain DD2” value (P. falciparum DD2; DD2 strain) was “effective” and the IC50 (P. falciparum DD2) was 100 nM. For the same molecule, the “disruption of food vacuoles” value (food vacuole) was “disrupted food vacuoles”, the IC50 [1, 3] was 1150 nM and the cytotoxicity (human HepG2 cells) was 40 to 50 µM. For the same molecule, the hemolytic [2] was “Neither compound, however, was hemolytic”.
Work on c1cc(-c2ccc3sc4ccc(-c5ccnc(N6CCNCC6)c5)cc4c3c2)cc(N2CCNCC2)n1 [Compound 110] yielded an IC50 [1, 3] of 584 nM.
In the case of NCCCc1cccc(-c2ccc3sc4ccc(-c5cccc(CCCN)c5)cc4c3c2)c1 [Compound 116], the IC50 (P. falciparum; Plasmodium falciparum, Erythrocyte, minimum concentration resulting in 50% killing, 48 hour incubation) is reported as 50 nM, the “IC50 (μM)” value (P. falciparum; minimum concentration resulting in 50% killing, 48 hour incubation) is reported as “sub-μM” and the “IC100” value (P. falciparum; minimum concentration resulting in 100% killing, 48 hour incubation) is reported as 0.850 µM. For the same molecule, the “% Kill @ 10 μM” value (P. falciparum; single concentration 10 μM) was 100% and the IC50 [1, 3] was 318 nM.
c1cc(N2CCNCC2)ncc1-c1ccc2sc3ccc(-c4ccc(N5CCNCC5)nc4)cc3c2c1 [Compound 117] showed an IC50 [1, 3] of 301 nM.
With NCc1cccc(-c2ccc3[nH]c4ccc(-c5cccc(CN)c5)cc4c3c2)c1 [Compound 118] the IC50 [1, 3] was 364 nM.
NCCCc1cccc(-c2ccc3[nH]c4ccc(-c5cccc(CCCN)c5)cc4c3c2)c1 [Compound 119] gave an IC50 [1, 3] of 1860 nM.
In the case of NCCCc1cccc(-c2ccc3oc4ccc(-c5cccc(CCCN)c5)cc4c3c2)c1 [Compound 120], the IC50 [1, 3] is reported as 604 nM.
N=C(N)NCCCCC(=O)Nc1cc(Br)cc(NC(=O)c2cc(C(=O)Nc3cc(Br)cc(NC(=O)CCCCNC(=N)N)c3SCCNC=O)ncn2)c1SCCNC=O [Compound 125] showed an IC50 [1, 3] of 286 nM.
In the case of NCCCc1ccc(-c2ccc3sc4ccc(-c5ccc(CCCN)cc5)cc4c3c2)cc1 [Compound 130], the IC50 [1] is reported as 2560 nM.
In the case of NCc1cccc(-c2ccc3sc4ccc(-c5cccc(CN)c5)cc4c3c2)c1 [Compound 131], the IC50 [1] is reported as 235 nM.
c1cc(N2CCNCC2)ccc1-c1ccc2sc3ccc(-c4ccc(N5CCNCC5)cc4)cc3c2c1 [Compound 132] showed an IC50 [1, 3] of 236 nM.
In the case of NCCCc1cccc(-c2ccc3c(c2)-c2cc(-c4cccc(CCCN)c4)ccc2S3(=O)=O)c1 [Compound 133], the IC50 [1, 3] is reported as 2030 nM.
NCCc1cccc(-c2ccc3c(c2)c2cc(-c4cccc(CCN)c4)ccc2[s+]3[O-])c1 [Compound 134] was tested, and the IC50 [1, 3] was 2440 nM.
COc1ccc(CCN)cc1-c1ccc2sc3ccc(-c4cc(CCN)ccc4OC)cc3c2c1 [Compound 135] showed an IC50 [1, 3] of 108 nM.
NCCN1CC=C(c2ccc3sc4ccc(C5=CCN(CCN)CC5)cc4c3c2)CC1 [Compound 136] showed an IC50 [1, 3] of 958 nM.
Work on CCn1c2ccc(-c3cccc(CCCN)c3)cc2c2cc(-c3cccc(CCCN)c3)ccc21 [Compound 137] yielded an IC50 [1, 3] of 604 nM.
With C1=C(c2ccc3sc4ccc(C5=CCNCC5)cc4c3c2)CCNC1 [Compound 138] the IC50 [1, 3] was 213 nM.
N=C(N)NCCCc1cccc(-c2ccc3sc4ccc(-c5cccc(CCCNC(=N)N)c5)cc4c3c2)c1 [Compound 139] was tested, and the IC50 [1, 3] was 1170 nM.
For NCCNCc1cncc(-c2ccc3sc4ccc(-c5cncc(CNCCN)c5)cc4c3c2)c1 [Compound 140], the IC50 [1, 3] was 1670 nM.
NCCCc1cccc(-c2ccc3c(c2)-c2cc(-c4cccc(CCCN)c4)ccc2S3(=O)=O)c1 [Compound 141] was tested, and the IC50 [1] was 1340 nM.
CCN(CC)CCCC(C)Nc1ccnc2cc(Cl)ccc12 (stereo not shown) [chloroquine, reference compound] was tested, and the IC50 (P. falciparum 3D7; 3D7, read-out: IC50 (3D7)) was 20 nM, the “resistance of DD2 strain relative to 3D7 strain” value (P. falciparum DD2; DD2 vs 3D7) was 4 times and the IC50 (P. falciparum DD2) was 80 nM.
